Reference: patent publication US12180162B1, “2-amino-4-(4-bromophenyl)-6-methoxypyridine-3,5-dicarbonitrile as an antibacterial compound” (KING FAISAL UNIVERSITY, priority 2023, dated 2024)
Where two headings read alike, the source gives them in different places.

Key:
Test in all cases: Antibacterial screening, agar disc-diffusion method
Format in all cases: cell-based
Staphylococcus aureus = settings: Gram positive, 6 mm disc, 10 μL of 10 mg/mL in DMSO, DMSO zone subtracted
Description: (§1) The antibacterial properties of the synthesized compound 2-amino-4-(4-bromophenyl)-6-methoxypyridine-3,5-dicarbonitrile were studied by the method of agar disc-diffusion method. Sterilized filter papers (6 mm in diameter) were wetted with 10 μL of a solution of 2-amino-4-(4-bromophenyl)-6-methoxypyridine-3,5-dicarbonitrile (3) to be tested, containing 10 mg/mL in DMSO, and the discs were allowed to air dry. The discs were then placed onto the surface of agar plates (nutrient agar for bacteria) seeded with the test organism. Each plate contained 15 mL of the agar medium, previously seeded with 0.2 mL of the broth culture of each organism pregrown for 18 hours. The inhibition zones was measured in mm. Discs impregnated with DMSO were used as a control, and its inhibition zone was subtracted from the tested compound actual inhibition zone. […] Their antibacterial screened against gram positive bacteria namely Bacillus cereus and Staphylococcus aureus and gram-negative bacterial strains namely Pseudomonas aeruginosa and Escherichia coli.

Pseudomonas aeruginosa = settings: Gram negative, 6 mm disc, 10 μL of 10 mg/mL in DMSO, DMSO zone subtracted
Description: as §1

Escherichia coli = settings: Gram negative, 6 mm disc, 10 μL of 10 mg/mL in DMSO, DMSO zone subtracted
Description: as §1

Bacillus Cereus = settings: Gram positive, 6 mm disc, 10 μL of 10 mg/mL in DMSO, DMSO zone subtracted
Description: as §1

COc1nc(N)c(C#N)c(-c2ccc(Br)cc2)c1C#N [Compound 3, 2-amino-4-(4-bromophenyl)-6-methoxypyridine-3,5-dicarbonitrile]
zone of inhibition at 10000 µg/mL (Staphylococcus aureus; sub-column A (not defined), read-out: inhibition zone, Staphylococcus aureus, A): 18 mm
zone of inhibition at 10000 µg/mL (Staphylococcus aureus; sub-column B (not defined), read-out: inhibition zone, Staphylococcus aureus, B): 27 mm
zone of inhibition at 10000 µg/mL (Staphylococcus aureus; sub-column C (not defined), read-out: inhibition zone, Staphylococcus aureus, C): 33 mm
zone of inhibition at 10000 µg/mL (Pseudomonas aeruginosa; sub-column A (not defined), read-out: inhibition zone, Pseudomonas aeruginosa, A): 24 mm
zone of inhibition at 10000 µg/mL (Pseudomonas aeruginosa; sub-column B (not defined), read-out: inhibition zone, Pseudomonas aeruginosa, B): 34 mm
zone of inhibition at 10000 µg/mL (Pseudomonas aeruginosa; sub-column C (not defined), read-out: inhibition zone, Pseudomonas aeruginosa, C): 39 mm
zone of inhibition at 10000 µg/mL (Escherichia coli; sub-column A (not defined), read-out: inhibition zone, Escherichia coli, A): 39 mm
zone of inhibition at 10000 µg/mL (Escherichia coli; sub-column B (not defined), read-out: inhibition zone, Escherichia coli, B): 41 mm
zone of inhibition at 10000 µg/mL (Escherichia coli; sub-column C (not defined), read-out: inhibition zone, Escherichia coli, C): 46 mm
zone of inhibition at 10000 µg/mL (Bacillus Cereus; sub-column A (not defined), read-out: inhibition zone, Bacillus Cereus, A): 32 mm
zone of inhibition at 10000 µg/mL (Bacillus Cereus; sub-column B (not defined), read-out: inhibition zone, Bacillus Cereus, B): 37 mm
zone of inhibition at 10000 µg/mL (Bacillus Cereus; sub-column C (not defined), read-out: inhibition zone, Bacillus Cereus, C): 40 mm
